Reference: patent publication US4963585A, “Compound, WF11605 and derivative thereof” (Fujisawa Pharmaceutical Company, Ltd., priority 1988, dated 1990)
In brackets after ≈: the same amount, converted by molar mass.

Key:
[1] = system: Candida albicans FP633; experiment: Antimicrobial activity, broth dilution method; format: cell-based; conditions: Sabouraud 30° C. 20 hrs
Experimental: (§1) Antimicrobial activity of WF11605 was determined by broth dilution method in a conventional manner.
(§2) ^1 Sabuoraud 30° C. 20 hrs

[2] = system: Cryptococcus albidus AHU-3922; experiment: Antimicrobial activity, broth dilution method; format: cell-based; conditions: Naganishia albida, AHU3922; Sabouraud 30° C. 20 hrs
Experimental: as §1, §2

[3] = system: Candida utilis; experiment: Antimicrobial activity, broth dilution method; format: cell-based; conditions: Williopsis jadinii; Sabouraud 30° C. 20 hrs
Experimental: as §1, §2

[4] = system: Candida krusei OUT-6007; experiment: Antimicrobial activity, broth dilution method; format: cell-based; conditions: Pichia kudriavzevii, OUT6007; Sabouraud 30° C. 20 hrs
Experimental: as §1, §2

[5] = system: Torulopsis colliculsa IAM-4426; experiment: Antimicrobial activity, broth dilution method; format: cell-based; conditions: Sabouraud 30° C. 20 hrs
Experimental: as §1, §2

[6] = system: certain yeasts; experiment: Antimicrobial activity, broth dilution method (summary); format: cell-based
Experimental: as §1

[7] = Acute toxicity, intraperitoneal, mice; conditions: mouse, in vivo, ip, female, 4 weeks old
Excerpt: The WF11605 was intraperitoneally given to mice (female, 4 weeks old). From the test results, LD50 of WF11605 was more than 1 g/kg.

[8] = Solubility; format: physicochemical; conditions: free form
[9] = system: Mucor rouxianus Wehmer; experiment: Antimicrobial activity, broth dilution method; format: cell-based; conditions: Sabouraud 25° C. 40 hrs
Experimental: as §1
^2 Sabouraud 25° C. 40 hrs

[10] = system: FMLP-induced degranulation in rabbit PMNLs; experiment: FMLP-induced degranulation (beta-glucuronidase release) of rabbit PMNLs; format: cell-based; conditions: Oryctolagus cuniculus, PMNL; FMLP 7×10^-10 M, Cytochalasin B 10^-5 M; read-out: 50% inhibitory concentration (IC50), FMLP-induced degranulation
Experimental: (§3) PMNLs were collected from the peritoneal exudates of male Japanese White rabbits. At 16 hr after the injection of 0.1% glycogen (400 ml/animal, i.p.), the peritoneal cells were collected and washed with Eagle's minimum essential medium (MEM) and resuspended in the same medium. Over 90% of the cells were judged as PMNLs after Giemsa staining .
(§4) PMNL suspension (5×10^6 cells/ml) was incubated with test substance or vehicle at 37° C. for 5 min in plastic tubes. Leukotriene B4 (LTB4, 7×10^-8 M, Cayman Chemical Co.,), […] (FMLP, 7×10^-10 M, Sigma) or platelet activating factor (PAF, 7×10^-7 M, Sigma) together with Cytochalasin B (10^-5 M, Sigma) were added and then incubated for 5 min at 37° C. Incubation was terminated by transfer to an ice bath followed by rapid centrifugation. The cell-free supernatants were subsequently assayed for the activity of beta-glucuronidase.
(§5) The assay mixture consisted of 300 μl of acetate buffer (0.1M, pH 4.6), 100 μl of sample (supernatant obtained above) and 50 μl of methylumbelliferyl-beta-D-glucuronide (1 mM, NAKARAI CHEMICAL Co.,) as substrate. […] The fluorescence (excitation; 365 nm, emission; 455 nm) of each sample was determined.
(§6) The results are expressed as percent of total beta-glucuronidase released where total are the amount of the enzyme in the cells released by 0.1% Triton X-100.

[11] = molecular target: T1, ^3 H-LTB4 receptor (rabbit PMNLs) (Oryctolagus cuniculus, UniProt G1U4T1); experiment: Inhibition of binding of ^3 H-LTB4 to freeze-thawed PMNLs (^3 H-LTB4 receptor assay); conditions: 4° C., 30 min; for ^3 H-LTB4 specific binding: control 1684 dpm
T1 construct: endogenous in cells; host or cells: freeze-thawed polymorphonuclear leukocytes (PMNLs) from peritoneal exudate of rabbit (glycogen-elicited, male Japanese White rabbits)
Experimental: PMNLs collected from the peritoneal exudate of rabbit were suspended at a concentration of 5×10^6 /ml in Eagle's MEM, stored at -20° C. and used within 2 weeks. On use, the PMNLs were thawed at room temperature and kept at 4° C.
^3 H-LTB4 ((5,6,8,9,11,14,15 (n)-^3 H)Leukotriene B4, 20 μCi/ml, Amersham Co., Japan) was diluted 20-fold with 3×10^-9M nonradioactive LTB4 in Hanks' balanced salt solution containing 10 mM N-(2-Hydroxyethyl)-piperazine-N'-2-ethanesulfonic acid, pH 7.4 (HBSS-HEPES). Fifteen microlitter of the solution was added to 60 μl HBSS-HEPES at 4° C. and then 25 μl of competitor or corresponding vehicle and 150 μl of freeze-thrawed cells (5×10^6 /ml) were also added, followed by vigorous mixing and allowing to stand for 30 min at 4° C. The resultant mixture was immediately filtered through Whatman GF/C glass filter to separate free and bound ^3 H-LTB4 using cell harvester (BRANDELL M-24R 5/8). The filter paper was quickly washed 5 times by 150 μl of cold HBSS-HEPES, dried, cut off and placed in a scintillation vial. To the vial was added 3 ml of toluene-based scintillation fluid and then the radioactivity was counted. All assay were carried out in duplicate. Specific binding defined as total binding minus non specific binding (with 0.1 μM LTB4), was about 60% of total binding.

[12] = system: PAF-induced degranulation in rabbit PMNLs; experiment: PAF-induced degranulation (beta-glucuronidase release) of rabbit PMNLs; format: cell-based; conditions: Oryctolagus cuniculus, PMNL; PAF 7×10^-7 M, Cytochalasin B 10^-5 M; read-out: 50% inhibitory concentration (IC50), PAF-induced degranulation
Experimental: as §3, §4, §5, §6

[13] = system: LTB4-induced degranulation in rabbit PMNLs; experiment: LTB4-induced degranulation (beta-glucuronidase release) of rabbit PMNLs; format: cell-based; conditions: Oryctolagus cuniculus, PMNL, LTB4 7×10^-8 M, Cytochalasin B 10^-5 M
Experimental: as §3, §4
The assay mixture consisted of 300 μl of acetate buffer (0.1M, pH 4.6), 100 μl of sample (supernatant obtained above) and 50 μl of methylumbelliferyl-beta-D-glucuronide (1 mM, NAKARAI CHEMICAL Co.,) as substrate. The reaction was started by addition of the substrate and terminated after 15 min at 37° C. by the addition of 2 ml glycine buffer (0.1M, pH 10.32). The fluorescence (excitation; 365 nm, emission; 455 nm) of each sample was determined.
as §6

T1 sequence (G1U4T1 1-363): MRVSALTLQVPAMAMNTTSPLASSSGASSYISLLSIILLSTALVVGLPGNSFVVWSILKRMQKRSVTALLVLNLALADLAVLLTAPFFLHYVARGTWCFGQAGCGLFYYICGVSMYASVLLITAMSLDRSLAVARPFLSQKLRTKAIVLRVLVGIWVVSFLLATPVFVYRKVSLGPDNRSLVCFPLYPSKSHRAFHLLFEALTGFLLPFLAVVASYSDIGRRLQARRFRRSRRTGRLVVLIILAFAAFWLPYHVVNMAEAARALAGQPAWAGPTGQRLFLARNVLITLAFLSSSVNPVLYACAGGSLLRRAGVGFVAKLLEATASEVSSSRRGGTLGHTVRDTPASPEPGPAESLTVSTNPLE

Compound `CC(=O)OC1CC2(C)C3=C(CCC2C(C)(C)C1OC1OC(CO)C(O)C(O)C1O)C1(C)CC(=O)C(C)(C(C)C(C)C)C(C(=O)O)C1(C)CC3` (stereo not shown) [WF11605] has an MIC [1] of 25 µg/mL (≈ 36.1 µM), an MIC [2] of 100 µg/mL (≈ 144 µM) and an MIC [3] of 50 µg/mL (≈ 72.2 µM). The MIC [4] was 25 µg/mL (≈ 36.1 µM), the MIC [5] was 50 µg/mL (≈ 72.2 µM) and the Antimicrobial activity [6] was “has antimicrobial activity against certain yeasts”. The LD50 [7] was > 1000 mg/kg, the Solubility ([8]; H2 O, methanol, ethanol) was “sparingly soluble” and the Solubility ([8]; chloroform, ether) was “insoluble”. The MIC [9] was 200 µg/mL (≈ 289 µM), the IC50 [10] was > 100 µM and the “^3 H-LTB4 specific binding” value ([11]; WF11605 7 × 10^-6 M) was 596 dpm. For the same compound, the inhibition at 7 µM ([11]; WF11605 7 × 10^-6 M, read-out: inhibition of 3H-LTB4 specific binding) was 64.6%, the “^3 H-LTB4 specific binding” value ([11]; WF11605 7 × 10^-7 M) was 1264 dpm and the inhibition at 0.7 µM ([11]; WF11605 7 × 10^-7 M, read-out: inhibition of 3H-LTB4 specific binding) was 24.9%. The IC50 [12] was > 100 µM, the IC50 ([13]; read-out: 50% inhibitory concentration (IC50), LTB4-induced degranulation) was 3 µM and the inhibition at 100 µM ([13]; WF11605 10^-4 M, read-out: Inhibition of total beta-glucuronidase release) was 93.6%. For the same compound, the inhibition at 10 µM ([13]; WF11605 10^-5 M, read-out: Inhibition of total beta-glucuronidase release) was 66.9%, the inhibition at 1 µM ([13]; WF11605 10^-6 M, read-out: Inhibition of total beta-glucuronidase release) was 30.3% and the inhibition at 0.1 µM ([13]; WF11605 10^-7 M, read-out: Inhibition of total beta-glucuronidase release) was 17.5%. The inhibition at 0.01 µM ([13]; WF11605 10^-8 M, read-out: Inhibition of total beta-glucuronidase release) was 12.2%.
